Results published in patent US4013662A, “Alkyl and benzyl 6,7-dialkoxy-2-methyl-4-oxo-1,2,3,4-tetrahydroquinoline-1-carboxylates” (Pfizer Inc., priority 1975, dated 1977).

Columns and labels:
[1] = Rat Flinch Jump Test (suppression of the jump component); assay type: in vivo; design: unit not given here
Description: D. Suppression of the "jump" component of the Flinch-Jump Test [Evans, Psychopharmacologia, 2, 318 (1961)].
The following results were obtained when the performance of the d-, l and dl- forms of a compound of the invention were compared in the Rat Flinch Jump Thresholds The control Jump Threshold using saline were 0.78 at 0.5 hr. and 0.92 at 2 hr.
The following results were obtained when 6,7-dimethoxy-2-methyl-4-oxo-1,2,3,4-tetrahydroquinoline, ethyl 6,7-dimethoxy-2-methyl-4-oxo-1,2,3,4-tetrahydroquinoline-1-carboxylate and benzyl 6,7-dimethoxy-2-methyl-4-oxo-1,2,3,4-tetrahydroquinoline-1-carboxylate were compared in the Rat Flinch Jump Test. The dosage of test compound was 56 mpk. Each of the compounds was in its racemic form.

[2] = Symptomatology (rotorod, inclined plane); assay type: in vivo, mice; conditions: intraperitoneally; for Symptomatology, Inclined Plane: inability to remain on an inclined plane; for Symptomatology, Rotorod: inability to ride a rotating rod
Method: c. Symtomatology--Four groups of 3 mice were treated intraperitoneally with 31.6, 100, 316, or 1000 mg/kg of the test compound. At 1/2, 2, or 5 hours after treatment, symtomatological observations were made; observations were all-or-none, and classified into autonomic, muscular, reflex or behavioral categories. […] Symptoms interpreted as indicating tranquilizer activity included decreased spontaneous motor activity, inability to ride a rotating rod (rotorod), and inability to remain on an inclined plane.

Escape Titration Test = assay type: in vivo; conditions: p.o.
Description: E. Escape Titration Test [Weiss et al, Science, 128, 1575 (1958) ].

[3] = PBQ Writhing (Suppression of Writhing Test); assay type: in vivo; conditions: 100 mpk
Description: F. Suppression of Writhing Test [Siegmund et al, Proc. Sec. Exp. Biol., 95, 729 (1957].

Hot Plate Test = assay type: in vivo; conditions: 100 mpk
Description: G. Hot Plate Test [Eddy et al, J. Pharm. Exp. Ther., 107, 385 (1953)].

Tail Flick Test = assay type: in vivo; conditions: 100 mpk
Description: H. Tail Flick Test [Witkin et al, Proc. Soc. Exp. Biol., 101, 377 (1959)].

LD50 = conditions: in vivo
[4] = Mouse Tail Pinch Technique (modified Haffner procedure); assay type: in vivo, mice; conditions: lack of an audible squeak
Description: The activity of compounds of this invention as analgesic agents has also been shown by testing their effectiveness in a Mouse Tail Pinch Technique. This technique was a modification of the Haffner procedure [Deutsche Med. Wochenschrifte, 55, 731-732 (1929)] in which the mice were strongly pinched on the base of the tail. An audible squeak was elicited in normal non-drugged mice. Lack of an audible squeak was taken as indication of analgesic activity in drugged mice.

[5] = Conditioned Avoidance Behavior (Maffi); assay type: in vivo; conditions: 0.5 hr.
Description: (§1) A. Conditioned Avoidance Behavior [Maffi, J. Pharmacol., 11, 129 (1959); Sidman, Science, 118, 157 (1953)].

[6] = Conditioned Avoidance Behavior (Sidman); assay type: in vivo
Description: as §1

[7] = Sedation Test (jiggle cage); assay type: in vivo, male Sprague-Dawley rats; conditions: oral, jiggle cage for 1 hr. from 1.5 hr.
Description: B. Sedation Test -- The subjects were male Sprague-Dawley rats weighing approximately 200 g and fed and watered ad lib before the experiment. Eight rats were assigned to each treatment group, and each rat was used only once.
1.5 hr. after oral treatment, each rat was placed in a standard jiggle cage for 1 hr. In this device, the subject was confined in a 6 × 6 × 3.5 in. Plexiglas enclosure. The enclosure was attached to one end of a flexible steel arm. This configuration, all of which was housed in a soundproof, ventilated chamber, allowed the enclosure to jiggle slightly with any movement. A force displacement transducer mounted under the jiggle cage monitored any vertical movement of the subject. The output of the transducer was coupled to a strain-gauge amplifier and to an analog recorder. To provide digital data of movement/non-movement times a trigger circuit was constructed in which the output of the strain-gauge amplifier was attentuated and rectified to activate a relay whenever the subject moved. When the relay remained deenergized for 3 sec., a timer was activated. Movement by the subject energized the relay and stopped the timer until 3 sec. of immobility recurred. This 3 sec. criterion eliminated brief periods of inactivity observed even in active rats. […]

[8] = 56 mpk, 0.5 hr., racemic compounds compared (table 4)
[9] = 56 mpk, 2.0 hr., racemic compounds compared (table 4)
[10] = 17.5 mpk, 2 hr, d-, l- and dl- forms compared, saline control 0.92
[11] = 17.5 mpk, .5 hr, d-, l- and dl- forms compared, saline control 0.78
[12] = 32 mpk, 2 hr, d-, l- and dl- forms compared, saline control 0.92
[13] = 32 mpk, .5 hr, d-, l- and dl- forms compared, saline control 0.78
[14] = 56 mpk, 2 hr, d-, l- and dl- forms compared, saline control 0.92
[15] = 56 mpk, .5 hr, d-, l- and dl- forms compared, saline control 0.78

In the case of COc1cc2c(cc1OC)C(=O)CC(C)N2 (racemic) [6,7-Dimethoxy-2-methyl-4-oxo-1,2,3,4-tetrahydroquinoline], the “Jump Threshold” value [1, 8] is reported as 1.47 and the “Jump Threshold” value [1, 9] is reported as 1.10.
For COC(=O)N1c2cc(OC)c(OC)cc2C(=O)CC1C (stereo not shown) [drawing 8], the “Symptomatology, Inclined Plane” value [2] was 100-316 mpk and the “Symptomatology, Rotorod” value [2] was 100-316 mpk.
In the case of CCOC(=O)N1c2cc(OC)c(OC)cc2C(=O)CC1C (racemic) [Ethyl 6,7-Dimethoxy-2-methyl-4-oxo-1,2,3,4-tetrahydroquinoline-1-carboxylate], the “Jump Threshold” value [1, 10] is reported as 0.98, the “Jump Threshold” value [1, 11] is reported as 1.26 and the “Jump Threshold” value [1, 12] is reported as 1.18. For the same molecule, the “Jump Threshold” value [1, 13] was 1.38, the “Jump Threshold” value [1, 8] was 1.58 and the “Jump Threshold” value [1, 9] was 1.42. For the same molecule, the “Jump Threshold” value [1, 14] was 1.45 and the “Jump Threshold” value [1, 15] was 1.58.
With CCOC(=O)N1c2cc(OC)c(OC)cc2C(=O)CC1C (stereo not shown) [drawing 11] the “Rat Flinch Jump Test, Jump Threshold” value ([1]; 3.2 mpk i.p., 2 h) was “.6”, the “Rat Flinch Jump Test, Jump Threshold” value ([1]; 3.2 mpk i.p., .5 h) was “.8” and the “Rat Flinch Jump Test, Jump Threshold” value ([1]; 10 mpk i.p., 2 h, Run two) was “.8”. For the same molecule, the “Rat Flinch Jump Test, Jump Threshold” value ([1]; 32 mpk i.p., 2 h) was > 2.2, the “Rat Flinch Jump Test, Jump Threshold” value ([1]; 32 mpk i.p., .5 h) was > 2.2 and the “Escape Titration” value (Escape Titration Test) was “Active at 32 mpk (p.o.)”. The “PBQ Writhing” value [3] was “Inactive at 100 mpk”, the “Hot Plate % Protected” value (Hot Plate Test; 2 h) was 0% and the “Hot Plate % Protected” value (Hot Plate Test; .5 h) was 0%. For the same molecule, the “Tail Flick % Protected” value (Tail Flick Test; 2 h) was 0%, the “Tail Flick % Protected” value (Tail Flick Test; .5 h) was 0% and the LD50 (LD50) was > 1000 mg/kg.
In the case of CCOC(=O)N1c2cc(OC)c(OC)cc2C(=O)CC1C (stereo not shown) [drawing 15], the ED50 [4] is reported as > 100 mg/kg.
In the case of COc1cc2c(cc1OC)N(C(=O)OCc1ccccc1)C(C)CC2=O (racemic) [Benzyl 6,7-Dimethoxy-2-methyl-4-oxo-1,2,3,4-tetrahydroquinoline-1-carboxylate], the “Jump Threshold” value [1, 8] is reported as 1.47 and the “Jump Threshold” value [1, 9] is reported as 1.21.
For CCOC(=O)N1c2cc(OC)c(OC)cc2C(=O)CC1C (single isomer, unassigned) [d-ethyl 6,7-dimethoxy-2-methyl-4-oxo-1,2,3,4-tetrahydroquino] [d-Ethyl 6,7-Dimethoxy-2-methyl-4-oxo-1,2,3,4-tetrahydroquinoline-1-carboxylate], the “Jump Threshold” value [1, 10] was 0.98, the “Jump Threshold” value [1, 11] was 1.26 and the “Jump Threshold” value [1, 12] was 1.38. The “Jump Threshold” value [1, 13] was 1.45, the “Jump Threshold” value [1, 14] was 1.45 and the “Jump Threshold” value [1, 15] was 1.51.
With COC(=O)N1c2cc(OC)c(OC)cc2C(=O)CC1C (stereo not shown) [drawing 12] the “Rat Flinch Jump Test, Jump Threshold” value ([1]; 32 mpk i.p., 2 h) was 1.2, the “Rat Flinch Jump Test, Jump Threshold” value ([1]; 32 mpk i.p., .5 h) was 1.6 and the “PBQ Writhing” value [3] was “Inactive at 100 mpk”. The “Hot Plate % Protected” value (Hot Plate Test; 2 h) was 0%, the “Hot Plate % Protected” value (Hot Plate Test; .5 h) was 0% and the “Tail Flick % Protected” value (Tail Flick Test; 2 h) was 0%. For the same molecule, the “Tail Flick % Protected” value (Tail Flick Test; .5 h) was 0% and the LD50 (LD50) was > 1000 mg/kg.
With COC(=O)N1c2cc(OC)c(OC)cc2C(=O)CC1C (stereo not shown) [drawing 16] the ED50 [4] was 100 to 316 mg/kg.
In the case of CCCCOC(=O)N1c2cc(OC)c(OC)cc2C(=O)CC1C (stereo not shown) [drawing 17], the ED50 [4] is reported as > 32 mg/kg.
For COc1cc2c(cc1OC)N(C(=O)OCc1ccccc1)C(C)CC2=O (stereo not shown) [drawing 14], the “PBQ Writhing” value [3] was “Inactive at 100 mpk” and the LD50 (LD50) was > 1000 mg/kg.
With CCCCOC(=O)N1c2cc(OC)c(OC)cc2C(=O)CC1C (stereo not shown) [drawing 13] the “Rat Flinch Jump Test, Jump Threshold” value ([1]; 32 mpk i.p., 2 h) was 1.2, the “Rat Flinch Jump Test, Jump Threshold” value ([1]; 32 mpk i.p., .5 h) was 1.6 and the “PBQ Writhing” value [3] was “Inactive at 100 mpk”. For the same molecule, the “Hot Plate % Protected” value (Hot Plate Test; 2 h) was 0%, the “Hot Plate % Protected” value (Hot Plate Test; .5 h) was 0% and the “Tail Flick % Protected” value (Tail Flick Test; 2 h) was 0%. The “Tail Flick % Protected” value (Tail Flick Test; .5 h) was 0% and the LD50 (LD50) was 316 to 1000 mg/kg.
In the case of COc1cc2c(cc1OC)N(C(=O)OCc1ccccc1)C(C)CC2=O (stereo not shown) [drawing 10], the “Symptomatology, Inclined Plane” value [2] is reported as 100-316 mpk and the “Symptomatology, Rotorod” value [2] is reported as 100-316 mpk.
In the case of CCOC(=O)N1c2cc(OC)c(OC)cc2C(=O)CC1C (single isomer, unassigned) [l-ethyl 6,7-dimethoxy-2-methyl-4-oxo-1,2,3,4-tetrahydroquino] [l-Ethyl 6,7-Dimethoxy-2-methyl-4-oxo-1,2,3,4-tetrahydroquinoline-1-carboxylate], the “Jump Threshold” value [1, 10] is reported as 0.92, the “Jump Threshold” value [1, 11] is reported as 0.92 and the “Jump Threshold” value [1, 12] is reported as 0.86. For the same molecule, the “Jump Threshold” value [1, 13] was 0.85, the “Jump Threshold” value [1, 14] was 0.86 and the “Jump Threshold” value [1, 15] was 1.05.
With CCCCOC(=O)N1c2cc(OC)c(OC)cc2C(=O)CC1C (stereo not shown) [drawing 9] the “Symptomatology, Inclined Plane” value [2] was 100-316 mpk and the “Symptomatology, Rotorod” value [2] was 32-100 mpk.
In the case of CCOC(=O)N1c2cc(OC)c(OC)cc2C(=O)CC1C (stereo not shown) [drawing 7], the “Conditioned Avoidance Behavior, Maffi” value [5] is reported as “Active at 56, 32 and 10 mpk”, the “Conditioned Avoidance Behavior, Sidman” value ([6]; 17.8 mpk) is reported as 2 of 3 animals and the “Conditioned Avoidance Behavior, Sidman” value ([6]; 32 mpk) is reported as “Active in 3 of 3 animals”. For the same molecule, the “Sedation Test” value ([7]; 10 mpk) was “Inactive at 10”, the “Sedation Test” value ([7]; 32 mpk) was “Active at 32 mpk” and the “Symptomatology, Inclined Plane” value [2] was 32-100 mpk. The “Symptomatology, Rotorod” value [2] was 3.2-10 mpk.
